This is an account of results in paper PMC11086599, “Cyanobacterial α-carboxysome carbonic anhydrase is allosterically regulated by the Rubisco substrate RuBP” (Science Advances, 2024).

In data set [1] the target is Cyanobium sp. PCC7001 CsoSCA (α-carboxysome carbonic anhydrase), truncated form lacking the 116-residue disordered N-terminal region (Cyanobium sp. PCC7001). Nature of the data set: crystal structure; CyCsoSCA co-crystallised with RuBP (RuBP:CyCsoSCA 10:1), 7 mg/ml protein, 0.2 M ammonium sulfate, 0.1 M bis-tris pH 6.5, 21% PEG 3350, 15% ethylene glycol; one hexamer in the asymmetric unit, P212121.

The target is the same in data set [2]. Nature of the data set: SEC; size exclusion chromatography of the purified protein in solution (fig. S13); conditions of this run not told in the main text.
The target in data set [3] is T1, CyCsoSCA (Cyanobium sp. PCC 7001, UniProt Z9Q2N2GQP4, T477A).
T1 construct: first 116 residues (disordered N-terminal tail) removed; pHue His-ubiquitin fusion, tag cleaved with USP2; expressed in E. coli; homohexamer (trimer of dimers)
T1 sequence (Z9Q2N2GQP4 117-583 T477A): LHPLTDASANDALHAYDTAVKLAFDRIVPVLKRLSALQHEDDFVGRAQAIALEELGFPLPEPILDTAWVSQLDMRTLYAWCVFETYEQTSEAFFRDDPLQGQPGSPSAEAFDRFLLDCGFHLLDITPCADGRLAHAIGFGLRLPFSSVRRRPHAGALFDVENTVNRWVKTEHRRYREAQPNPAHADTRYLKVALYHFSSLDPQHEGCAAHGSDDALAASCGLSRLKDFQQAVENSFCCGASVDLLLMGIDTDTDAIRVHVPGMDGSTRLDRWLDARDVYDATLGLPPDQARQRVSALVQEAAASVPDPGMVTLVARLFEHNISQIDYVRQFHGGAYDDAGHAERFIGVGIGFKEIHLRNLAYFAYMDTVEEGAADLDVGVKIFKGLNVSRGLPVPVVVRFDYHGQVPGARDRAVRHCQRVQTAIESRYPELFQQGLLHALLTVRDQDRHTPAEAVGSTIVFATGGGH
The experiment in a line: membrane inlet mass spectrometry […]-exchange CA assay. It counts as biochemical. The conditions noted are these: 100 μM RuBP; allosteric activator; same buffer.

Data set [4] addresses T2, CyCsoSCA (Cyanobium sp. PCC 7001, UniProt Z9Q2N2GQP4, H472Q).
T2 construct: first 116 residues (disordered N-terminal tail) removed; pHue His-ubiquitin fusion, tag cleaved with USP2; expressed in E. coli; homohexamer (trimer of dimers)
T2 sequence (Z9Q2N2GQP4 117-583 H472Q): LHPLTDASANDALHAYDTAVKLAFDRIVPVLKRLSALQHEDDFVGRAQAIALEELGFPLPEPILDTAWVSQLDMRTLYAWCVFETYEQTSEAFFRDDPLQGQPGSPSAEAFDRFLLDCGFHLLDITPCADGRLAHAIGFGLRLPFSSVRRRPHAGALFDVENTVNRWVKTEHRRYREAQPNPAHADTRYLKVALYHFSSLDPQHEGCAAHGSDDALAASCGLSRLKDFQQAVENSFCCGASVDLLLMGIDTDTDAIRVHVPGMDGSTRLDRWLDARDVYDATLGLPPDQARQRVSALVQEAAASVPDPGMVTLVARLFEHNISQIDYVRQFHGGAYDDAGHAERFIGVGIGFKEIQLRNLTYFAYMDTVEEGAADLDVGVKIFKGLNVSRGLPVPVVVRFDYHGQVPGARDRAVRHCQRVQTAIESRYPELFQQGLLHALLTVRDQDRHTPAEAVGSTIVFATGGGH
Described as above. It counts as biochemical. The conditions noted are these: 100 μM RuBP; allosteric activator; same buffer.

Data set [5] has as its target T3, CyCsoSCA (Cyanobium sp. PCC 7001, UniProt Z9Q2N2GQP4).
T3 construct: first 116 residues (disordered N-terminal tail) removed; pHue His-ubiquitin fusion, tag cleaved with USP2; expressed in E. coli; homohexamer (trimer of dimers)
T3 sequence (Z9Q2N2GQP4 117-583): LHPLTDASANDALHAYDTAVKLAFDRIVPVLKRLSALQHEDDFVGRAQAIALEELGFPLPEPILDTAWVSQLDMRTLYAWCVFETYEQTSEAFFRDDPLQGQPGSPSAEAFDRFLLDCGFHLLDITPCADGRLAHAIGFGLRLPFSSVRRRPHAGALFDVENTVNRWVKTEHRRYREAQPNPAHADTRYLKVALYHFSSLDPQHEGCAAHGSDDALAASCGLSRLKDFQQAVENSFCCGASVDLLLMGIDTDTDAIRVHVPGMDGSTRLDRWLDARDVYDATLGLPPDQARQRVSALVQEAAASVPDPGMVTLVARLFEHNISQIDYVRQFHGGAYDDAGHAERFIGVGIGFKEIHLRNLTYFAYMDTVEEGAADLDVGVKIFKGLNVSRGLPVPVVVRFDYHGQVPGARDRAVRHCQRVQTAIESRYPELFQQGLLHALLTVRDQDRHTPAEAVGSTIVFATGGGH
Nature of the data set: membrane inlet mass spectrometry […]-exchange CA assay; Hill fit. In kind it is biochemical. The following applies: allosteric activator of bicarbonate dehydration/CO2 hydration; sigmoidal, Hill slope 2.214; 2.7 mM labelled bicarbonate, 50 mM EPPS-NaOH, 20 mM MgCl2, pH 7.8; site near dimer interface (R266, K469, R5).

The target of data set [6] is T4, CyCsoSCA (Cyanobium sp. PCC 7001, UniProt Z9Q2N2GQP4, K469D).
T4 construct: first 116 residues (disordered N-terminal tail) removed; pHue His-ubiquitin fusion, tag cleaved with USP2; expressed in E. coli; homohexamer (trimer of dimers)
T4 sequence (Z9Q2N2GQP4 117-583 K469D): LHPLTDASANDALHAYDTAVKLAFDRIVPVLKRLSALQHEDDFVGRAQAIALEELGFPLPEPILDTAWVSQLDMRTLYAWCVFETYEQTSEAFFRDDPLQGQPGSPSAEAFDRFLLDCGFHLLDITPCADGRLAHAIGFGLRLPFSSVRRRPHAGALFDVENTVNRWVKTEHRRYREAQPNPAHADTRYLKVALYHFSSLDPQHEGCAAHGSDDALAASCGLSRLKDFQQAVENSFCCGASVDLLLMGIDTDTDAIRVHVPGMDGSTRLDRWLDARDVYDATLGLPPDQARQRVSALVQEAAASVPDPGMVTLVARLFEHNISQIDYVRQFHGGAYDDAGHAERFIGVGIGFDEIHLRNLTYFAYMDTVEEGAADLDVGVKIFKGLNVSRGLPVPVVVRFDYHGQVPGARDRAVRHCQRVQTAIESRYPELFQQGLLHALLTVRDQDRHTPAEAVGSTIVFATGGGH
Nature of the data set: membrane inlet mass spectrometry […]-exchange CA assay. It counts as biochemical. The conditions noted are these: 100 μM RuBP; allosteric activator; same buffer.

The target in data set [7] is T5, HnCsoSCA (Halothiobacillus neapolitanus, UniProt O85042).
T5 construct: gene csoS3
The conditions noted are these: labelled compound; 2.7 mM NaH13C18O3, 50 mM EPPS-NaOH, 20 mM MgCl2, pH 7.8, DTNB; no RuBP needed.

Data set [8] concerns the molecule itself. The experiment in a line: SEC; size exclusion chromatography of the purified protein in solution (fig. S13); conditions of this run not told in the main text.

With “Cyanobium sp. PCC7001 CsoSCA (α-carboxysome carbonic anhydrase), truncated form lacking the 116-residue disordered N-terminal region (enzyme)”, the stoichiometry N in data set [1] and in data set [2] was 6 in each case.
As for `O=C(COP(=O)(O)O)[C@H](O)[C@H](O)COP(=O)(O)O` [RuBP], the “membrane inlet mass spectrometry 18O-exchange CA assay” value is “high levels of ligand-independent activity and a notable increase with RuBP” in data set [3]; “H472Q mutation (targeted approach) and T477A (random approach) also resulted in a biphasic activity profile” in data set [4]; “a minor increase in activity upon addition of the ligand” in data set [6]. The same molecule displayed an EC50 in data set [5] of 18 ± 2 µM.
Take `O=C(O)O` [HCO3^−]: the “membrane inlet mass spectrometry 18O-exchange CA assay” value in data set [7] was “HCO3^− dehydration activity was recorded using MIMS after the addition of CsoSCA variants”.

B1: Halothiobacillus neapolitanus CsoSCA (α-carboxysome carbonic anhydrase), truncated form lacking the first 49 residues (enzyme, UniProt O85042 50-514, looked up)
chain: RHPLTDLEANEQLGRCEDSVKNRFDRVIPFLQVVAGIPLGLDYVTRVQELAQSSLGHTLPEELLKDNWISGHNLKGIFGYATAKALTAATEQFSRKIMSEKDDSASAIGFFLDCGFHAVDISPCADGRLKGLLPYILRLPLTAFTYRKAYAGSMFDIEDDLAQWEKNELRRYREGVPNTADQPTRYLKIAVYHFSTSDPTHSGCAAHGSNDRAALEAALTQLMKFREAVENAHCCGASIDILLIGVDTDTDAIRVHIPDSKGFLNPYRYVDNTVTYAQTLHLAPDEARVIIHEAILNANRSDGWAKGNGVASEGMRRFIGQLLINNLSQIDYVVNRHGGRYPPNDIGHAERYISVGDGFDEVQIRNLAYYAHLDTVEENAIDVDVGIKIFTKLNLSRGLPIPIAIHYRYDPNVPGSRERTVVKARRIYNAIKERFSSLDEQNLLQFRLSVQAQDIGSPIEEVASA
notes: CsoSCA carbonic anhydrase of Halothiobacillus neapolitanus, O85042 with the first 49 residues (disordered N-terminal region) removed; codon-optimised for E. coli; also called HnCsoSCA; wild-type HnCsoSCA; source: E. coli NEB T7 Express pLysY, pHue plasmid, purified (HisTrap, USP2 cleavage, second HisTrap, SEC on Superdex 200)
As for B1, the “stoichiometry N” value in data set [8] worked out at 6.
